T1: Dihydrofolate reductase (Pneumocystis carinii, UniProt P16184)
T1 sequence (P16184 whole entry): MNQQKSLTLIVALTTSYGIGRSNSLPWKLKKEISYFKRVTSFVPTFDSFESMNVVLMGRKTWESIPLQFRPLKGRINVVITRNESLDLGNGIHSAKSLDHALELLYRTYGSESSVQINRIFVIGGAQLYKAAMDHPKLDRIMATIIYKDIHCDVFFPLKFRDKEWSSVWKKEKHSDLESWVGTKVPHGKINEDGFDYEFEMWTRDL

T2: Bifunctional dihydrofolate reductase-thymidylate synthase (Toxoplasma gondii, UniProt Q07422)
T2 sequence (Q07422 whole entry): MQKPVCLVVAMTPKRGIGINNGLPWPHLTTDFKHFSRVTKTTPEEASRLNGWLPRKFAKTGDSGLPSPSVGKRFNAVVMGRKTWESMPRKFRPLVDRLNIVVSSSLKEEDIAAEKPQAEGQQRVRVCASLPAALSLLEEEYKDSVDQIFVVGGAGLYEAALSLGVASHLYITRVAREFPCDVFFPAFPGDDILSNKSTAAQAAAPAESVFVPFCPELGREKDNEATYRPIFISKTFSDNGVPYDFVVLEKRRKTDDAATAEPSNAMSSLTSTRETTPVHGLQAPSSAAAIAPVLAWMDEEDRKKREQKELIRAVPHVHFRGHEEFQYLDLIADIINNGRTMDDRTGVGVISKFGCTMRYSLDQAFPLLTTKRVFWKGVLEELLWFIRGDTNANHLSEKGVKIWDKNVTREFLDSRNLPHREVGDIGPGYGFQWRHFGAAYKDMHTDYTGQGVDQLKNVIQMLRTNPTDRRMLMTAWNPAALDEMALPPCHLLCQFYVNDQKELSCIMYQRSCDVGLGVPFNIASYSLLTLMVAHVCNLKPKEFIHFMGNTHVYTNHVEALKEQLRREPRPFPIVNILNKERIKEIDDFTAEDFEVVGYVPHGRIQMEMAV

T3: Dihydrofolate reductase (Rattus norvegicus, UniProt Q920D2)
T3 sequence (Q920D2 whole entry): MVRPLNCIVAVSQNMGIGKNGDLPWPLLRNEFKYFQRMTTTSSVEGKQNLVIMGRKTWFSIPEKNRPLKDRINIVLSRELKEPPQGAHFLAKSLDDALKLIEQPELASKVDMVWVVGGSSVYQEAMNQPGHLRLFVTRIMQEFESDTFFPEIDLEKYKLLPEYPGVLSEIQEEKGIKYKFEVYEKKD

B1: Folylpolyglutamate synthase, mitochondrial (Homo sapiens), Q05932 (protein)
chain: MSRARSHLRAALFLAAASARGITTQVAARRGLSAWPVPQEPSMEYQDAVRMLNTLQTNAGYLEQVKRQRGDPQTQLEAMELYLARSGLQVEDLDRLNIIHVTGTKGKGSTCAFTECILRSYGLKTGFFSSPHLVQVRERIRINGQPISPELFTKYFWRLYHRLEETKDGSCVSMPPYFRFLTLMAFHVFLQEKVDLAVVEVGIGGAYDCTNIIRKPVVCGVSSLGIDHTSLLGDTVEKIAWQKGGIFKQGVPAFTVLQPEGPLAVLRDRAQQISCPLYLCPMLEALEEGGPPLTLGLEGEHQRSNAALALQLAHCWLQRQDRHGAGEPKASRPGLLWQLPLAPVFQPTSHMRLGLRNTEWPGRTQVLRRGPLTWYLDGAHTASSAQACVRWFRQALQGRERPSGGPEVRVLLFNATGDRDPAALLKLLQPCQFDYAVFCPNLTEVSSTGNADQQNFTVTLDQVLLRCLEHQQHWNHLDEEQASPDLWSAPSPEPGGSASLLLAPHPPHTCSASSLVFSCISHALQWISQGRDPIFQPPSPPKGLLTHPVAHSGASILREAAAIHVLVTGSLHLVGGVLKLLEPALSQ

Legend:
Dihydrofolate reductase [1] = biological target: T1, Dihydrofolate reductase
Description: Inhibition of Pneumocystis carinii (pc) Dihydrofolate reductase

[2] = Ratio of IC50 against rat liver DHFR and Pneumocystis carinii DHFR (IC50rl/IC50pc)
[3] = Ratio of the IC50 against rat liver DHFR and Toxoplasma gondii DHFR (IC50rl/IC50tg)
[4] = biological target: T2, Bifunctional dihydrofolate reductase-thymidylate synthase
Description: Inhibition of Toxoplasma gondii (tc) Dihydrofolate reductase

Dihydrofolate reductase [5] = biological target: T3, Dihydrofolate reductase
Description: Inhibition of rat liver Dihydrofolate reductase

A253 cell line = test: Growth inhibition of human squamous carcinoma cell lines following continuous (120 hours) exposure to MTX and compound A253 cell line; type: functional, cell-based; conditions: A253, 120 h
FaDu = test: Growth inhibition of human squamous carcinoma cell lines following continuous (120 hours) exposure to MTX and compound FaDu cell line; type: functional, cell-based
[6] = Relative Vmax of compound was measured.; type: ADME
CCRF-CEM [7] = test: Compound was evaluated for the growth inhibition of R2, a CCRF-CEM subline resistant to MTX as a result of deffective uptake.; type: functional, cell-based; conditions: Homo sapiens
CCRF-CEM [8] = test: Compound was evaluated for the growth inhibition of R30dm, a CCRF-CEM subline resistant to intermittent MTX exposure solely as a result of decreased polyglutamylation.; type: functional, cell-based; conditions: Homo sapiens
CCRF-CEM [9] = test: Compound was evaluated for the growth inhibition of parental CCRF-CEM; type: functional, cell-based; conditions: Homo sapiens
[10] = compound: Nc1nc(N)c2nc(CNc3ccc(C(=O)N[C@@H](CCC(=O)O)C(=O)O)cc3)cnc2n1; test: Inhibitory activity of compound was measured for CCRF-CEM human leukemia cell Folyl-polyglutamate synthase
[11] = biological target: Folylpolyglutamate synthase, mitochondrial (Homo sapiens) (UniProt Q05932); test: Inhibitory activity of compound was measured for CCRF-CEM human leukemia cell Folyl-polyglutamate synthase

Row | Molecule | IC50 (Dihydrofolate reductase [1]) [nM] | Selectivity ratio [2] | Selectivity ratio [3] | IC50 [4] [nM] | IC50 (Dihydrofolate reductase [5]) [nM] | further results
1 | CCOc1ccc(OCC)c(NCc2c[nH]c3nc(N)nc(N)c23)c1 | 21000 | – | – | – | – | –
2 | COc1ccc(OC)c(NCc2c[nH]c3nc(N)nc(N)c23)c1 | – | 3.4 | 92 | 1700 | 156000 | –
3 | CN(Cc1cnc2nc(N)nc(N)c2n1)c1ccc(C(=O)N[C@@H](CCC(=O)O)C(=O)O)cc1 [METHOTREXATE] | – | – | – | – | – | EC50 (A253 cell line): 17 nM; EC50 (FaDu): 31 nM
4 | Nc1nc(N)c2c(CNc3ccc(C(=O)NC(CCC(=O)O)C(=O)O)cc3)c[nH]c2n1 (stereo not given) | 38 | – | – | 210 | – | EC50 (A253 cell line): 46 nM; Vmax [6]: 0.72; EC50 (CCRF-CEM [7]): 1650 nM; EC50 (CCRF-CEM [8]): 36 nM; EC50 (CCRF-CEM [9]): 12.8 nM; EC50 (FaDu): 22 nM
5 | Nc1nc(N)c2c(CNc3ccccc3)c[nH]c2n1 | – | < 1 | > 65 | – | – | –
6 | Nc1nc(N)c2c(CNc3cccc4ccccc34)c[nH]c2n1 | 307000 | 0.2 | 53.9 | 1100 | 59300 | –
7 | Nc1nc(N)c2nc(CNc3ccc(C(=O)N[C@@H](CCC(=O)O)C(=O)O)cc3)cnc2n1 [AMINOPTERIN] | – | – | – | – | – | Vmax [6]: 1
8 | COc1ccc(NCc2c[nH]c3nc(N)nc(N)c23)cc1 | 279000 | 0.23 | 10.5 | 6000 | 63000 | –
9 | COc1cc(NCc2c[nH]c3nc(N)nc(N)c23)cc(OC)c1OC | > 23000 | < 2.4 | 7 | 8100 | 56300 | –
10 | B1 | – | – | – | – | – | Km [10]: 4.3 µM; Km [11]: < 1 µM

— ChEMBL document CHEMBL1128397, “Novel 2,4-diamino-5-substituted-pyrrolo[2,3-d]pyrimidines as classical and nonclassical antifolate inhibitors of dihydrofolate reductases” (J Med Chem, 1995)
